Test results as given in patent publication US10829427B2, “Naphthoquinones, pro-drugs, and methods of use thereof” (The Board of Regents of the University of Texas System, priority 2015, dated 2020).

What was measured:
Mia PaCa-2 cells = experiment: ATP assay (ATP depletion / cell viability) in Mia PaCa-2 cells; type: cell-based, human; conditions: Relative activity compare with β-lapachone in ATP depletion of Mia PaCa-2 cells
Description: (§1) In vitro anti-cancer activity of the compound were performed using ATP Assay Kit (Abcam, ab83355) to initially screen, and further performed using 7-day DNA assay.
(§2) Cell culture: endogenous NQO1 overexpressing human MIA PaCa-2 pancreactic and A549 NSCLC cancer cells were obtained (Bey, et al., 2007; Li, et al., 2011). Cancer cells were grown in DMEM with 5% FBS and Mycoplasma free, and cultured at 37° C. in a 5% CO2 95% air humidified atmosphere.
ATP assay: Cells were seeded into each well of a 96-well plate (15000 cells/well) 18 hours ahead of experiment. After aspiration of the media from each well, 100 μl drug-contained media was added instead, and further incubated for 2 hours. After incubation, 100 μl ATP assay kit mixture was added into every well. Following further shaking for 10 minutes with light proof, the data were collected by reading luminescence integrate 1 second per well.

A549 cells = experiment: Cell viability in A549 cells (7-day DNA assay); type: cell-based, human; conditions: relative to β-lapachone
Description: as §1, §2
DNA assay: Cells were seeded into each well of a 48-well plate (10000 cells/well) 24 hours ahead of experiment. After aspiration of the media from each well, 500 μl drug-contained media was added instead, and further incubated for 2 hours. Drugs were then removed, control growth medium was added, and cells were allowed to grow for an additional 7 days. Drugs were added to medium at a 1:1000 dilution immediately before administration to cells. DNA content (a measure of cell growth) was determined by fluoresence of the DNA dye Hoescht 33258 (Sigma), and read in a Cytofluor fluoresence plate reader. Data were expressed as relative growth with 6 repetitions.

CCCCCCCCOC1=CC(=O)C(=O)c2c(NS(C)(=O)=O)cccc21 [Compound 55, N-(5-(octyloxy)-7,8-dioxo-7,8-dihydronaphthalen-1-yl)methanesulfonamide]
IC50/IC50 (β-lapachone/Compoud) (Mia PaCa-2 cells): 1~2

Cc1cc(C)c2c(c1)C(=O)C(=O)C=C2OC(C)C [Compound 10, 4-isopropoxy-5,7-dimethylnaphthalene-1,2-dione]
IC50/IC50 (β-lapachone/Compoud) (Mia PaCa-2 cells): <0.3

CC(=O)Nc1cccc2c1C(=O)C(=O)C=C2OC1CCCCC1 [Compound 25, N-(5-(cyclohexyloxy)-7,8-dioxo-7,8-dihydronaphthalen-1-yl)acetamide]
IC50/IC50 (β-lapachone/Compoud) (Mia PaCa-2 cells): <0.3

CC(C)OC1=CC(=O)C(=O)c2ccc(Cl)cc21 [Compound 34, 6-chloro-4-isopropoxynaphthalene-1,2-dione]
IC50/IC50 (β-lapachone/Compoud) (A549 cells): 0.3~1 | IC50/IC50 (β-lapachone/Compoud) (Mia PaCa-2 cells): 1~2

CCC(CC)OC1=CC(=O)C(=O)c2c(NS(C)(=O)=O)cccc21 [Compound 53, N-(7,8-dioxo-5-(pentan-3-yloxy)-7,8-dihydronaphthalen-1-yl)methanesulfonamide]
IC50/IC50 (β-lapachone/Compoud) (Mia PaCa-2 cells): <0.3

CS(=O)(=O)Nc1cccc2c1C(=O)C(=O)C=C2OC1CCCCC1 [Compound 26, N-(5-(cyclohexyloxy)-7,8-dioxo-7,8-dihydronaphthalen-1-yl)methanesulfonamide]
IC50/IC50 (β-lapachone/Compoud) (Mia PaCa-2 cells): <0.3

CC(=O)Nc1cccc2c1C(=O)C(=O)C=C2OCCN1CCOCC1 [Compound 43, N-(5-(2-morpholinoethoxy)-7,8-dioxo-7,8-dihydronaphthalen-1-yl)acetamide]
IC50/IC50 (β-lapachone/Compoud) (Mia PaCa-2 cells): 0.3~1

Cc1ccc(S(=O)(=O)Nc2cccc3c2C(=O)C(=O)C=C3OC(C)C)cc1 [Compound 17, N-(5-isopropoxy-7,8-dioxo-7,8-dihydronaphthalen-1-yl)-4-methylbenzenesulfonamide]
IC50/IC50 (β-lapachone/Compoud) (Mia PaCa-2 cells): <0.3

CC(C)OC1=CC(=O)C(=O)c2cc(Br)ccc21 [Compound 1, 7-bromo-4-isopropoxynaphthalene-1,2-dione]
IC50/IC50 (β-lapachone/Compoud) (Mia PaCa-2 cells): <0.3

CC(C)OC1=CC(=O)C(=O)c2ccc(NC(=O)OC(C)(C)C)cc21 [Compound 33, tert-butyl (8-isopropoxy-5,6-dioxo-5,6-dihydronaphthalen-2-yl)carbamate]
IC50/IC50 (β-lapachone/Compoud) (Mia PaCa-2 cells): <0.3

O=C1C=C(OC2CCCCC2)c2ccc(Cl)cc2C1=O [Compound 5, 7-chloro-4-(cyclohexyloxy)naphthalene-1,2-dione]
IC50/IC50 (β-lapachone/Compoud) (Mia PaCa-2 cells): <0.3

CC(C)OC1=CC(=O)C(=O)c2cccc(Br)c21 [Compound 32, 5-bromo-4-isopropoxynaphthalene-1,2-dione]
IC50/IC50 (β-lapachone/Compoud) (Mia PaCa-2 cells): <0.3

CC(C)OC1=C(Cl)C(=O)C(=O)c2ccccc21 [Compound 13, 3-chloro-4-isopropoxynaphthalene-1,2-dione]
IC50/IC50 (β-lapachone/Compoud) (Mia PaCa-2 cells): <0.3

O=C1C=C(OC2CCCCC2)c2cccc(Cl)c2C1=O [Compound 16, 8-chloro-4-(cyclohexyloxy)naphthalene-1,2-dione]
IC50/IC50 (β-lapachone/Compoud) (Mia PaCa-2 cells): 0.3~1

CC(C)OC1=CC(=O)C(=O)c2cccc([N+](=O)[O-])c21 [Compound 7, 4-isopropoxy-5-nitronaphthalene-1,2-dione]
IC50/IC50 (β-lapachone/Compoud) (Mia PaCa-2 cells): 0.3~1

COC1=C(C)C(=O)C(=O)c2c(NC(C)=O)cccc21 [Compound 47, N-(5-methoxy-6-methyl-7,8-dioxo-7,8-dihydronaphthalen-1-yl)acetamide]
IC50/IC50 (β-lapachone/Compoud) (Mia PaCa-2 cells): <0.3

CC(C)OC1=CC(=O)C(=O)c2ccc(Br)cc21 [Compound 36, 6-bromo-4-isopropoxynaphthalene-1,2-dione]
IC50/IC50 (β-lapachone/Compoud) (Mia PaCa-2 cells): <0.3

CC(C)OC1=CC(=O)C(=O)c2cccc(Cl)c21 [Compound 6, 5-chloro-4-isopropoxynaphthalene-1,2-dione]
IC50/IC50 (β-lapachone/Compoud) (Mia PaCa-2 cells): <0.3

CC(=O)Nc1cccc2c1C(=O)C(OCCN(C)C)=CC2=O [Compound 45, N-(7-(2-(dimethylamino)ethoxy)-5,8-dioxo-5,8-dihydronaphthalen-1-yl)acetamide]
IC50/IC50 (β-lapachone/Compoud) (Mia PaCa-2 cells): 1~2

CC(C)OC1=C(Br)C(=O)c2ccccc2C1=O [Compound 12, 2-bromo-3-isopropoxynaphthalene-1,4-dione]
IC50/IC50 (β-lapachone/Compoud) (Mia PaCa-2 cells): <0.3

CCCCCCCCOC1=CC(=O)C(=O)c2c(NC(C)=O)cccc21 [Compound 51, N-(5-(octyloxy)-7,8-dioxo-7,8-dihydronaphthalen-1-yl)acetamide]
IC50/IC50 (β-lapachone/Compoud) (Mia PaCa-2 cells): <0.3

CC(=O)Nc1cccc2c1C(=O)C(=O)C=C2OCCCO [Compound 27, N-(5-(3-hydroxypropoxy)-7,8-dioxo-7,8-dihydronaphthalen-1-yl)acetamide]
IC50/IC50 (β-lapachone/Compoud) (Mia PaCa-2 cells): <0.3

CC(C)OC1=C(Br)C(=O)C(=O)c2ccccc21 [Compound 11, 3-bromo-4-isopropoxynaphthalene-1,2-dione]
IC50/IC50 (β-lapachone/Compoud) (Mia PaCa-2 cells): <0.3

CCC(CC)OC1=CC(=O)C(=O)c2c(NC(C)=O)cccc21 [Compound 52, N-(7,8-dioxo-5-(pentan-3-yloxy)-7,8-dihydronaphthalen-1-yl)acetamide]
IC50/IC50 (β-lapachone/Compoud) (Mia PaCa-2 cells): <0.3

COCCOCCOCCOCCOC1=CC(=O)C(=O)c2c(NS(C)(=O)=O)cccc21 [Compound 56, N-(5-(2,5,8,11-tetraoxatridecan-13-yloxy)-7,8-dioxo-7,8-dihydronaphthalen-1-yl)methanesulfonamide]
IC50/IC50 (β-lapachone/Compoud) (Mia PaCa-2 cells): <0.3

CC(C)OC1=CC(=O)C(=O)c2c(Cl)cccc21 [Compound 14, 8-chloro-4-isopropoxynaphthalene-1,2-dione]
IC50/IC50 (β-lapachone/Compoud) (Mia PaCa-2 cells): 0.3~1

O=C1C=C(OC2CCCCC2)c2cc(Cl)ccc2C1=O [Compound 35, 6-chloro-4-(cyclohexyloxy)naphthalene-1,2-dione]
IC50/IC50 (β-lapachone/Compoud) (Mia PaCa-2 cells): 0.3~1

CC(C)OC1=CC(=O)C(=O)c2cc(F)ccc21 [Compound 3, 7-fluoro-4-isopropoxynaphthalene-1,2-dione]
IC50/IC50 (β-lapachone/Compoud) (Mia PaCa-2 cells): <0.3

O=C1C=C(OC2CCCCC2)c2ccc(Br)cc2C1=O [Compound 2, 7-bromo-4-(cyclohexyloxy)naphthalene-1,2-dione]
IC50/IC50 (β-lapachone/Compoud) (Mia PaCa-2 cells): <0.3

COC1=CC(=O)C(=O)c2c(NC(C)=O)cccc21 [Compound 46, N-(5-methoxy-7,8-dioxo-7,8-dihydronaphthalen-1-yl)acetamide]
IC50/IC50 (β-lapachone/Compoud) (Mia PaCa-2 cells): 1~3

COc1cc2c(cc1OC)C(OC(C)C)=CC(=O)C2=O [Compound 8, 4-isopropoxy-6,7-dimethoxynaphthalene-1,2-dione]
IC50/IC50 (β-lapachone/Compoud) (Mia PaCa-2 cells): <0.3

CC(C)Nc1cccc2c1C(=O)C(OC(C)C)=CC2=O [Compound 31, 2-isopropoxy-8-(isopropylamino)naphthalene-1,4-dione]
IC50/IC50 (β-lapachone/Compoud) (Mia PaCa-2 cells): <0.3

CCCCCCOC1=CC(=O)C(=O)c2c(NS(C)(=O)=O)cccc21 [Compound 54, N-(5-(hexyloxy)-7,8-dioxo-7,8-dihydronaphthalen-1-yl)methanesulfonamide]
IC50/IC50 (β-lapachone/Compoud) (Mia PaCa-2 cells): <0.3

CC(C)OC1=CC(=O)C(=O)c2cccc(O)c21 [Compound 40, 5-hydroxy-4-isopropoxynaphthalene-1,2-dione]
IC50/IC50 (β-lapachone/Compoud) (Mia PaCa-2 cells): <0.3

CCCCOC1=CC(=O)C(=O)c2c(NC(C)=O)cccc21 [Compound 50, N-(5-butoxy-7,8-dioxo-7,8-dihydronaphthalen-1-yl)acetamide]
IC50/IC50 (β-lapachone/Compoud) (Mia PaCa-2 cells): 1~2

CC(C)OC1=CC(=O)C(=O)c2c(NS(=O)(=O)C(F)(F)F)cccc21 [Compound 23, 1,1,1-trifluoro-N-(5-isopropoxy-7,8-dioxo-7,8-dihydronaphthalen-1-yl)methanesulfonamide]
IC50/IC50 (β-lapachone/Compoud) (Mia PaCa-2 cells): <0.3

CC(C)OC1=CC(=O)C(=O)c2c(N)cccc21 [Compound 29, 8-amino-4-isopropoxynaphthalene-1,2-dione]
IC50/IC50 (β-lapachone/Compoud) (Mia PaCa-2 cells): <0.3

CC(=O)Nc1cccc2c1C(=O)C(OCCN1CCOCC1)=CC2=O [Compound 44, N-(7-(2-morpholinoethoxy)-5,8-dioxo-5,8-dihydronaphthalen-1-yl)acetamide]
IC50/IC50 (β-lapachone/Compoud) (Mia PaCa-2 cells): 0.3~1

CC(C)OC1=CC(=O)c2cccc(NC(=O)C(F)(F)F)c2C1=O [Compound 20, 2,2,2-trifluoro-N-(7-isopropoxy-5,8-dioxo-5,8-dihydronaphthalen-1-yl)acetamide]
IC50/IC50 (β-lapachone/Compoud) (Mia PaCa-2 cells): <0.3

CC(C)OC1=CC(=O)c2cccc(NS(C)(=O)=O)c2C1=O [Compound 22, N-(7-isopropoxy-5,8-dioxo-5,8-dihydronaphthalen-1-yl)methanesulfonamide]
IC50/IC50 (β-lapachone/Compoud) (Mia PaCa-2 cells): <0.3

CC(C)OC1=CC(=O)C(=O)c2cccc(OCCN3CCOCC3)c21 [Compound 42, 4-isopropoxy-5-(2-morpholinoethoxy)naphthalene-1,2-dione]
IC50/IC50 (β-lapachone/Compoud) (Mia PaCa-2 cells): <0.3

O=C1C=C(OC2CCCCC2)c2cccc(O)c2C1=O [Compound 39, 4-(cyclohexyloxy)-8-hydroxynaphthalene-1,2-dione]
IC50/IC50 (β-lapachone/Compoud) (Mia PaCa-2 cells): 0.3~1

CC(C)OC1=CC(=O)C(=O)c2c(NC(=O)C(F)(F)F)cccc21 [Compound 19, 2,2,2-trifluoro-N-(5-isopropoxy-7,8-dioxo-7,8-dihydronaphthalen-1-yl)acetamide]
IC50/IC50 (β-lapachone/Compoud) (Mia PaCa-2 cells): <0.3

CC(C)OC1=CC(=O)C(=O)c2cc3c(cc21)OCO3 [Compound 9, 8-isopropoxynaphtho[2,3-d][1,3]dioxole-5,6-dione]
IC50/IC50 (β-lapachone/Compoud) (Mia PaCa-2 cells): <0.3
